We go through eight compounds from patent publication US20130266676A1, “TERMINALIA CHEBULA COMPOSITIONS AND METHOD OF EXTRACTING SAME” (NATREON, INC., priority 2012, published 2013).

Data set [1] deals with stimulated human peripheral blood lymphocytes. Particulars: concentrations ten times above maximal effective concentration; cited from earlier work.
Data set [2] has as its target HIV rgp120 to CD4 (UniProt P01730+P04578). The settings on record: cited from earlier work.
The conditions of data set [3]: compared with ascorbic acid, butylated hydroxyl toluene, alpha-tocopherol, arbutin and kojic acid; cited from earlier work.
For data set [4], the system named is Smad pathway. The settings on record: through inhibition of the Smad pathway; cited from earlier work.
Data set [5] concerns collagen-induced arthritis. The settings on record: mice; cited from earlier work.
Data set [6] deals with HepG2 cells. The settings on record: cited from earlier work.
Data set [7] relates to HCT-15, COLO-205, MDA-MB-231, DU-145 and K562 cell lines. Particulars: cited from earlier work.
For data set [8], the system named is HSV-1. Particulars: noncytotoxic doses, A549 human lung cells; cited from earlier work.
Data set [9] in a line: Thermal stability during aqueous extraction at 80±5° C. (HPLC). The class given is physicochemical. The settings on record: different time points. The procedure: In another experiment, fruit pericarp portions of T. Chebula (50 g) were pulverized and the resulting powder was extracted with distilled water (300 ml) for 12 hours, with a continuous stirring (400 RPM), separately at different temperatures 30±5° C., 40±5° C., 60±5° C. and 80±5° C. using a pressure reactor. Aliquots of the samples were withdrawn at different time intervals during extraction, spray dried and analyzed for bioactives (Chebulagic acid, Chebulinic acid and other LMwHTs) by HPLC (as discussed above). The results are incorporated in Tables 3-6. As used herein, “0 hour” extraction refers to “instant extraction,” which for the purpose of this disclosure means distilled water was added to the pulverized powder on a thermostatic water bath, stirred for 5 minutes and an aliquot of the sample withdrawn and analyzed.

In data set [10] the test system is melanin. The settings on record: compared with ascorbic acid, butylated hydroxyl toluene, alpha-tocopherol, arbutin and kojic acid; cited from earlier work.
In data set [11] the test system is LPS-stimulated RAW 264.7. Particulars: cited from earlier work.
Data set [12] has as its system 5-LOX. The settings on record: cited from earlier work.
The target of data set [13] is T1, COX-2 (Homo sapiens, UniProt P35354).
T1 sequence (P35354 18-604): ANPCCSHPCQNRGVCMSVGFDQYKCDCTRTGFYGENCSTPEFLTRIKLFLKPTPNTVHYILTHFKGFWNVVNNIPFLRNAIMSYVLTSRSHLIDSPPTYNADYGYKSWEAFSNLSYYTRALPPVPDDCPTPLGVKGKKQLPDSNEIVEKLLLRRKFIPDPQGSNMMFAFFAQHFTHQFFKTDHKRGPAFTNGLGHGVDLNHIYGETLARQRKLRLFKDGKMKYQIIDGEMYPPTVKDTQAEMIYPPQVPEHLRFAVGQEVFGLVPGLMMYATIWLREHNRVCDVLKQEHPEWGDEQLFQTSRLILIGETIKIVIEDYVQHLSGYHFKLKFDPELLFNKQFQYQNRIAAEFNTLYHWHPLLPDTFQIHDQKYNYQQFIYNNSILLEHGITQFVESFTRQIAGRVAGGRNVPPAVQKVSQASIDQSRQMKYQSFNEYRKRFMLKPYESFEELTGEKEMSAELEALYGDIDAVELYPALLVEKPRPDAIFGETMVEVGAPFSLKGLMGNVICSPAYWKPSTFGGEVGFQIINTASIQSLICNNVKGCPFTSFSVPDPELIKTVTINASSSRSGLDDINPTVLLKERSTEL
The settings on record: cited from earlier work.

The test system of data set [14] is PRMI-7951 melanoma cells. The settings on record: cited from earlier work.
In data set [15] the test system is COX-1. The settings on record: cited from earlier work.
Data set [16] deals with MCF-7, S115, HOS-1, PC-3 and PNT1A cell lines. Particulars: cited from earlier work.
The test system of data set [17] is human cervical carcinoma HeLa cells. The settings on record: cited from earlier work.
The conditions of data set [18]: rats; cited from earlier work.
Data set [19] concerns K562 cells. The settings on record: concentration-dependent; cited from earlier work.
Data set [20] concerns cytotoxic T-lymphocyte (CTL)-mediated cytotoxicity. Particulars: cited from earlier work.

Regarding `O=C1OC[C@H]2OC(O)[C@H](O)[C@@H](O)[C@@H]2OC(=O)c2cc(O)c(O)c(O)c2-c2c(O)c(O)c3oc(=O)c4c(c(O)c(O)c5oc(=O)c2c3c54)-c2c1cc(O)c(O)c2O` (mixture of isomers) [punicalin], the toxicity to lymphocytes result in [1] is given as “not toxic”. The “blocking of binding of HIV rgp120 to CD4” value in [2] is “block the binding”.
As to `O=C(O)CC1C(=O)OC2C3COC(=O)c4cc(O)c(O)c(O)c4-c4c(cc(O)c(O)c4O)C(=O)OC2C(OC(=O)c2cc(O)c(O)c4c2C1C(O)C(=O)O4)C(OC(=O)c1cc(O)c(O)c(O)c1)O3` [Chebulagic acid, beta-1-O-galloyl-2,4-chebuloyl-3,6-(R)-hexahydroxydiphenoyl-D-glucose], the “DPPH radical scavenging activity versus reference antioxidants” value in data set [3] is reported as “stronger”. The antifibrotic activity result in data set [4] is “antifibrotic activity”. Further, in [5], the “onset and progression of collagen-induced arthritis” value is “suppress the onset and progression”. Besides, the “enhancement of cytotoxicity of doxorubicin” value in data set [6] (HepG2 cells) is reported as 20 fold. Also, the “interaction with doxorubicin by Combination Index (CI), cell growth inhibition” value in [6] was “strong synergistic interaction”. Also, the anti-proliferative activity entry in data set [7] is given as “anti-proliferative activity”. For the same compound, the “inhibition of HSV-1 entry” value in data set [8] was “inhibit HSV-1 entry”. The thermal stability result in data set [9] is “thermolabile”. Besides, in data set [10], the “melanin inhibitory activity versus reference agents” value was “stronger”. Besides, the anti-inflammatory effects result in data set [11] is “potent anti-inflammatory effects”. Moreover, the IC50 – broadly, the midpoint of a concentration-inhibition curve – in data set [12] is 2.1 ± 0.057 µM; in [13], 0.92 ± 0.011 µM; in [15] it was 15 ± 0.288 µM. In addition, the cytotoxicity entry in data set [14] is recorded as “cytotoxic properties”.
For the compound `O=c1oc2c(O)c(O)cc3c(=O)oc4c(O)c(O)cc1c4c23` [ellagic acid], the growth inhibition entry in data set [16] was “growth inhibitory”.
In the case of `O=C(O)CC1C(=O)OC2C(COC(=O)c3cc(O)c(O)c(O)c3)OC(OC(=O)c3cc(O)c(O)c(O)c3)C(OC(=O)c3cc(O)c(O)c4c3C1C(O)C(=O)O4)C2OC(=O)c1cc(O)c(O)c(O)c1` [Chebulinic acid, 1,3,6-tri-O-galloyl-2,4-chebuloyl-beta-D-glucose], the anti-tumor properties entry in [17] is on record as “anti-tumor properties”. In data set [1], the toxicity to lymphocytes result is recorded as “not toxic”. Moreover, the blood pressure effect entry in data set [18] is listed as “blood pressure lowering effect”. Besides, the “DPPH radical scavenging activity versus reference antioxidants” value in data set [3] is “stronger”. The antifibrotic activity entry in data set [4] is “antifibrotic activity”. Further, the hemoglobin synthesis entry in data set [19] is given as “inhibited the hemoglobin synthesis”. The thermal stability result in data set [9] was “thermolabile”. Moreover, the “melanin inhibitory activity versus reference agents” value in [10] is on record as “stronger”. Moreover, in data set [16], the growth inhibition result is “growth inhibitory”. The “blocking of binding of HIV rgp120 to CD4” value in [2] was “block the binding”.
As to `O=C(OC[C@H]1O[C@@H](OC(=O)c2cc(O)c(O)c(OC(=O)c3cc(O)c(O)c(O)c3)c2)[C@H](OC(=O)c2cc(O)c(O)c(OC(=O)c3cc(O)c(O)c(O)c3)c2)[C@@H](OC(=O)c2cc(O)c(O)c(OC(=O)c3cc(O)c(O)c(O)c3)c2)[C@@H]1OC(=O)c1cc(O)c(O)c(OC(=O)c2cc(O)c(O)c(O)c2)c1)c1cc(O)c(O)c(OC(=O)c2cc(O)c(O)c(O)c2)c1` [tannic acid], in data set [16], the growth inhibition entry was “growth inhibitory”.
`O=C(O)C[C@H](C(=O)O)[C@H]1c2c(cc(O)c(O)c2O)C(=O)O[C@@H]1C(=O)O` [chebulic acid]: the “blocking of CTL-mediated cytotoxicity” value in data set [20] is listed as “blocked”.
For the compound `O=C1O[C@H]2[C@@H]3OC(=O)c4cc(O)c(O)c(O)c4-c4c(O)c(O)c5oc(=O)c6c(c(O)c(O)c7oc(=O)c4c5c76)-c4c(cc(O)c(O)c4O)C(=O)OC[C@H]3OC(O)[C@@H]2OC(=O)c2cc(O)c(O)c(O)c2-c2c1cc(O)c(O)c2O` (mixture of isomers) [punicalagin], the “inhibition of HSV-1 entry” value in data set [8] was “inhibit HSV-1 entry”.
Turning to `O=C(O[C@H]1[C@@H]2OC(=O)c3cc(O)c(O)c(O)c3-c3c(cc(O)c(O)c3O)C(=O)OC[C@H]2OC(O)[C@@H]1OC(=O)c1cc(O)c(O)c(O)c1)c1cc(O)c(O)c(O)c1` (stereo partly shown) [Tellimagrandin I], the anti-tumor properties result in data set [17] was “anti-tumor properties”.
